Several values for one entry are separate records, joined by “and”; a condition that tells them apart may be missing. Identical values can stand only once.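 Five concentrations, 48 hours, 96-well plates. The concentration for 50% growth inhibition is given as GI50. TGI: total growth inhibition.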
Experiments:
Experiment in all cases: NCI-60 cell line screen, 48 h
OVCAR-3 ovarian = test system: OVCAR-3 ovarian
A549 NSCLC = test system: A549 NSCLC
RXF 393 renal = test system: RXF 393 renal
SF-539 CNS = test system: SF-539 CNS
CCRF-CEM leukemia = test system: CCRF-CEM leukemia
SR leukemia = test system: SR leukemia

SMILES	GI50 (OVCAR-3 ovarian)	TGI (OVCAR-3 ovarian)	GI50 (A549 NSCLC)	TGI (A549 NSCLC)	GI50 (RXF 393 renal)	TGI (RXF 393 renal)	GI50 (SF-539 CNS)	TGI (SF-539 CNS)	GI50 (CCRF-CEM leukemia)	TGI (CCRF-CEM leukemia)	GI50 (SR leukemia) [µM]	TGI (SR leukemia) [µM]
OC(CNC1CCCC1)Cn1c2ccccc2c2ccccc21 (stereo not given)	51.3 µM	> 100 µM	> 100 µM	> 100 µM	16.3 µM	52.5 µM	24.4 µM	82.9 µM	> 100 µM	> 100 µM	> 100	> 100
CN(C)CCNC(=O)c1cc2c3ccccc3[nH]c2c2ncccc12	0.0254 µM	16.8 µM	6.46 µM	36.9 µM	6.08 µM	20.1 µM	8.87 µM	21.1 µM	3.46 µM	15.8 µM	3.34	13.2
CCOC(=O)C#Cc1c(CC(=O)OCC)nnn1[C@H]1O[C@@H](CO)[C@@H]2OC(C)(C)O[C@@H]21	1.75 µM	3.22 µM	23.7 µM	41.9 µM	1.69 µM	3.32 µM	–	–	2.04 µM	4.97 µM	–	–
COc1cc(-c2oc3c(OC)c(O)c(OC)c(O)c3c(=O)c2OC)ccc1O	–	67.8 µM	–	> 100 µM	–	–	–	> 100 µM	–	> 100 µM	–	> 100
N#C[S-].[Au+].c1ccc(CN2[CH-]N(Cc3ccccc3)C(c3ccccc3)=C2c2ccccc2)cc1	0.351 µM	1.3 µM	0.593 µM	3.24 µM	0.546 µM	1.86 µM	0.629 µM	2.13 µM	–	–	–	–
O=C1C(=O)c2ccccc2C(O)=C1CCCCCCCCC1CCCCC1	–	26.5 µM	–	23.5 µM	–	–	–	22.4 µM	–	13.6 µM	–	54.9
CC(C)C[C@@H]1NC(=O)[C@@H]2CCCN2C(=O)[C@@H]2CCCN2C(=O)[C@H](CC(C)C)NC(=O)[C@H](CO)NC(=O)[C@H](CCCCN)NC(=O)[C@H]([C@H](C)O)NC(=O)[C@@H]2CCCC[C@@H](NC1=O)C(=O)N[C@@H](Cc1ccccc1)C(=O)N1CCC[C@H]1C(=O)N[C@@H](CC(=O)O)C(=O)NCC(=O)N[C@@H](CCCN=C(N)N)C(=O)N2	> 50 µM	> 50 µM	> 50 µM	> 50 µM	> 50 µM	> 50 µM	> 50 µM	> 50 µM	> 50 µM	> 50 µM	–	–
CCCCCN(CCCCC)CC(O)c1cc2c(c3ccccc13)CCCC2 (stereo not given)	6.22 µM and 10.5 µM	18.7 µM and 24.1 µM	9.87 µM and 12.3 µM	22.8 µM and 29.7 µM	2.31 µM and 2.88 µM	6.71 µM and 7.13 µM	4.88 µM and 10.9 µM	16.9 µM and 23.6 µM	5.55 µM and 9.21 µM	22.5 µM and 91.7 µM	–	–
O=C(CN1C(=O)c2ccccc2C1=O)C(O)CN1C(=O)c2ccccc2C1=O (stereo not given)	–	> 100 µM	–	> 100 µM	–	> 100 µM	–	> 100 µM	–	–	–	> 100
C[C@@H]1C[C@@]2(O[C@@H]2C)C(=O)O[C@@H]2CCN3CC=C(COC(=O)[C@]1(C)O)[C@H]23	–	> 100 µM	–	> 100 µM	–	–	–	> 100 µM	–	> 100 µM	–	–
CSC1C(=O)c2ccccc2/C(=N/Nc2nc3ccccc3s2)C1C (stereo not given)	7.98 µM	17.6 µM	16 µM	44.4 µM	–	–	12.5 µM	21.8 µM	–	–	0.843	2.52
COc1cc([N+](=O)[O-])c(OC)cc1-c1nc2sc(Cl)cn2c1/C=N/NC(=N)N/N=C/c1c(-c2cc(OC)c([N+](=O)[O-])cc2OC)nc2sc(Cl)cn12	–	–	–	–	–	–	0.387 µM	1.8 µM	–	–	–	–
C/C=C/C=C\C1OC(O)([C@H](CC)C(=O)NC/C=C/C=C(\C)[C@H](OC)C(C)C2OC(\C=C/C=C/C=C(\C)C(=O)c3c(O)ccn(C)c3=O)[C@H](O)[C@@H]2O)C(O)C(O)C1(C)C (stereo not given in full)	–	> 100 µM	–	> 100 µM	–	> 100 µM	–	> 100 µM	–	> 100 µM	–	–
CC(C)CCc1c(Cl)nc(Cl)nc1Cl	–	24.3 µM	–	54.9 µM	–	11.5 µM	–	56.5 µM	–	> 100 µM	–	–
O=C1/C(=C/c2ccc(Cl)cc2)COc2ccc(O)c(O)c21	0.404 µM	1.48 µM	1.79 µM	4.77 µM	1.34 µM	2.75 µM	0.44 µM	1.87 µM	–	–	–	–
COc1ccc2nc(C)cc(Nc3ccccc3O)c2c1	37.2 µM	> 100 µM	38 µM	> 100 µM	–	–	19.2 µM	42.2 µM	21.7 µM	> 100 µM	–	–
CC1/C(=N/Nc2ccc([N+](=O)[O-])cc2)CC2C3(C)CCC2(C(C)C(=O)O)C(=O)C13 (stereo not given)	1.72 µM	> 100 µM	5.5 µM	> 100 µM	3.18 µM	> 100 µM	5.44 µM	> 100 µM	16.3 µM	> 100 µM	–	–
COC(=O)c1cc2oc(/C=C3\SC(=S)N(NC(C)=O)C3=O)cc2n1Cc1ccccc1	0.53 µM	2.66 µM	5.2 µM	17.9 µM	2.81 µM	16.8 µM	2.79 µM	14 µM	–	–	1.11	> 50
